In the NIST ThermoML archive (doi:10.1021/je101178u):
Values joined by “and” are separate entries in the source; they are usually repeats but may differ in a detail not shown here. Equal values may be shown once. ± gives the expanded uncertainty stated by the source.

Conditions: Fluid (supercritical or subcritical phases); for mass density: Buoyancy - hydrostatic balance with magnetic suspension - one sinker; for viscosity: vibrating wire

CC [ethane]
Conditions	mass density, 293.15 K	mass density, 307.15 K [kg/m3]	viscosity, 293.15 K	viscosity, 307.15 K
64.37 kPa	0.79811 ± 0.0028 kg/m3	–	0.009075 ± 5.5e-05 mPa·s and 0.009074 ± 5.5e-05 mPa·s	–
80.37 kPa	0.99778 ± 0.003 kg/m3	–	0.009076 ± 5.5e-05 mPa·s	–
80.42 kPa	0.99851 ± 0.003 kg/m3	–	0.009075 ± 5.5e-05 mPa·s	–
80.48 kPa	0.99923 ± 0.003 kg/m3	–	0.009073 ± 5.5e-05 mPa·s	–
92.55 kPa	–	1.0967 ± 0.0032	–	0.009492 ± 5.7e-05 mPa·s
92.62 kPa	–	1.0975 ± 0.0032	–	0.009489 ± 5.7e-05 mPa·s
97.81 kPa	–	1.1594 ± 0.0033	–	0.009507 ± 5.7e-05 mPa·s and 0.009508 ± 5.7e-05 mPa·s
160.1 kPa	2.0005 ± 0.0048 kg/m3	–	0.009083 ± 5.5e-05 mPa·s and 0.009082 ± 5.5e-05 mPa·s	–
160.16 kPa	2.0012 ± 0.0048 kg/m3	–	0.009082 ± 5.5e-05 mPa·s	–
160.18 kPa	–	1.907 ± 0.0046	–	0.00951 ± 5.7e-05 mPa·s and 0.009508 ± 5.7e-05 mPa·s
166.71 kPa	–	1.9856 ± 0.0047	–	0.009531 ± 5.7e-05 mPa·s
166.77 kPa	–	1.9863 ± 0.0047	–	0.009529 ± 5.7e-05 mPa·s
315.97 kPa	3.9991 ± 0.0087 kg/m3	–	0.009102 ± 5.5e-05 mPa·s	–
316.05 kPa	4.0002 ± 0.0087 kg/m3	–	0.009098 ± 5.5e-05 mPa·s and 0.009099 ± 5.5e-05 mPa·s	–
327.38 kPa	–	3.9439 ± 0.0086	–	0.009566 ± 5.7e-05 mPa·s
332.45 kPa	–	4.0065 ± 0.0087	–	0.009542 ± 5.8e-05 mPa·s and 0.009543 ± 5.8e-05 mPa·s
467.91 kPa	5.9992 ± 0.013 kg/m3	–	0.009118 ± 5.5e-05 mPa·s	–
467.96 kPa	5.9999 ± 0.013 kg/m3	–	0.009119 ± 5.5e-05 mPa·s	–
468.01 kPa	6.0006 ± 0.013 kg/m3	–	0.009118 ± 5.5e-05 mPa·s	–
493.91 kPa	–	6.0228 ± 0.013	–	0.009573 ± 5.8e-05 mPa·s
493.97 kPa	–	6.0235 ± 0.013	–	0.009572 ± 5.8e-05 mPa·s
615.93 kPa	8.0004 ± 0.017 kg/m3	–	0.009139 ± 5.5e-05 mPa·s and 0.009137 ± 5.5e-05 mPa·s	–
616.03 kPa	8.0018 ± 0.017 kg/m3	–	0.009137 ± 5.5e-05 mPa·s	–
649.95 kPa	–	8.0188 ± 0.017	–	0.009604 ± 5.8e-05 mPa·s
650.01 kPa	–	8.0195 ± 0.017	–	0.009604 ± 5.8e-05 mPa·s
759.69 kPa	9.9972 ± 0.021 kg/m3	–	0.009162 ± 5.5e-05 mPa·s and 0.009165 ± 5.5e-05 mPa·s	–
788.48 kPa	–	9.8322 ± 0.021	–	0.009663 ± 5.8e-05 mPa·s
788.7 kPa	–	9.8351 ± 0.021	–	0.009665 ± 5.8e-05 mPa·s
800.35 kPa	–	9.9895 ± 0.021	–	0.009635 ± 5.8e-05 mPa·s
800.41 kPa	–	9.9903 ± 0.021	–	0.009639 ± 5.8e-05 mPa·s and 0.009636 ± 5.8e-05 mPa·s
889.73 kPa	11.852 ± 0.025 kg/m3	–	0.009183 ± 5.5e-05 mPa·s and 0.009184 ± 5.5e-05 mPa·s	–
889.87 kPa	11.854 ± 0.025 kg/m3	–	0.009183 ± 5.5e-05 mPa·s	–
959.13 kPa	–	12.123 ± 0.026	–	0.009675 ± 5.8e-05 mPa·s
959.2 kPa	–	12.124 ± 0.026	–	0.009674 ± 5.8e-05 mPa·s
1036.2 kPa	14.001 ± 0.029 kg/m3	–	0.009212 ± 5.5e-05 mPa·s and 0.009213 ± 5.5e-05 mPa·s	–
1036.3 kPa	14.002 ± 0.029 kg/m3	–	0.009213 ± 5.5e-05 mPa·s	–
1094.4 kPa	–	13.987 ± 0.03	–	0.009709 ± 5.9e-05 mPa·s
1094.5 kPa	–	13.988 ± 0.03	–	0.00971 ± 5.9e-05 mPa·s
1167.2 kPa	15.979 ± 0.033 kg/m3	–	0.009246 ± 5.6e-05 mPa·s	–
1167.3 kPa	15.98 ± 0.033 kg/m3 and 15.981 ± 0.033 kg/m3	–	0.009243 ± 5.6e-05 mPa·s	–
1233.8 kPa	–	15.953 ± 0.034	–	0.009746 ± 5.9e-05 mPa·s
1233.9 kPa	–	15.955 ± 0.034	–	0.009746 ± 5.9e-05 mPa·s
1293.6 kPa	17.943 ± 0.038 kg/m3	–	0.009274 ± 5.6e-05 mPa·s	–
1293.8 kPa	17.946 ± 0.038 kg/m3	–	0.009275 ± 5.6e-05 mPa·s	–
1343.4 kPa	–	17.536 ± 0.038	–	0.009778 ± 5.9e-05 mPa·s
1420.8 kPa	19.979 ± 0.042 kg/m3	–	0.009305 ± 5.6e-05 mPa·s and 0.009308 ± 5.6e-05 mPa·s	–
1421 kPa	19.983 ± 0.042 kg/m3	–	0.00931 ± 5.6e-05 mPa·s	–
1469.3 kPa	–	19.394 ± 0.041	–	0.009855 ± 5.9e-05 mPa·s
1469.5 kPa	–	19.396 ± 0.041	–	0.009856 ± 5.9e-05 mPa·s
1502.4 kPa	–	19.889 ± 0.044	–	0.00983 ± 5.9e-05 mPa·s and 0.009828 ± 5.9e-05 mPa·s
1992.4 kPa	30.002 ± 0.063 kg/m3	–	0.009506 ± 5.7e-05 mPa·s	–
1992.5 kPa	30.004 ± 0.063 kg/m3	–	0.009506 ± 5.7e-05 mPa·s	–
1992.6 kPa	30.006 ± 0.063 kg/m3	–	0.009505 ± 5.7e-05 mPa·s	–
2477.2 kPa	40.017 ± 0.085 kg/m3	–	0.009749 ± 5.9e-05 mPa·s	–
2477.4 kPa	40.022 ± 0.085 kg/m3	–	0.009748 ± 5.9e-05 mPa·s	–
2477.6 kPa	40.026 ± 0.085 kg/m3	–	0.009748 ± 5.9e-05 mPa·s	–
2879.7 kPa	49.983 ± 0.11 kg/m3	–	0.01003 ± 6e-05 mPa·s	–
2879.9 kPa	49.988 ± 0.11 kg/m3	–	0.01003 ± 6e-05 mPa·s	–
3212.1 kPa	60.071 ± 0.13 kg/m3	–	0.01036 ± 6.2e-05 mPa·s	–
3212.2 kPa	60.073 ± 0.13 kg/m3	–	0.01036 ± 6.2e-05 mPa·s	–
3212.3 kPa	60.079 ± 0.13 kg/m3	–	0.01036 ± 6.2e-05 mPa·s	–
3471.9 kPa	70.014 ± 0.15 kg/m3	–	0.01073 ± 6.5e-05 mPa·s	–
3472 kPa	70.02 ± 0.15 kg/m3	–	0.01073 ± 6.5e-05 mPa·s	–
3472.2 kPa	70.027 ± 0.15 kg/m3	–	0.01073 ± 6.5e-05 mPa·s	–
3577.6 kPa	74.947 ± 0.16 kg/m3	–	0.01093 ± 6.6e-05 mPa·s	–
3577.8 kPa	74.957 ± 0.16 kg/m3	–	0.01092 ± 6.6e-05 mPa·s	–
